The CheMixHub viscosity set
± gives the uncertainty stated by the source.

Experiment: xn = mol fraction of the nth substance listed

c1ncncn1 + O
viscosity [mPa·s], 101 kPa
Settings	x1 = 9.04e-05	x1 = 0.0001902	x1 = 0.0002698	x1 = 0.0003238	x1 = 0.0005432	x1 = 0.0005796	x1 = 0.0006388
293.15 K	0.9241 ± 0.0097	0.9097 ± 0.0096	0.8902 ± 0.0095	0.8869 ± 0.0096	0.8968 ± 0.0092	0.8957 ± 0.0093	0.8944 ± 0.0095
298.15 K	0.8187 ± 0.0087	0.8008 ± 0.0086	0.7878 ± 0.0083	0.7742 ± 0.0083	0.8122 ± 0.0085	0.8002 ± 0.0085	0.7864 ± 0.0085
303.15 K	0.7307 ± 0.0079	0.7212 ± 0.0077	0.7162 ± 0.0076	0.71 ± 0.0074	0.7263 ± 0.0079	0.7135 ± 0.0077	0.6979 ± 0.0077

CCOCCO + OCCOCCO
101 kPa
Settings	viscosity [mPa·s]
293.15 K, x1 = 0.0582	33.17 ± 0.16
293.15 K, x1 = 0.0952	30.25 ± 0.15
293.15 K, x1 = 0.2037	23.28 ± 0.12
293.15 K, x1 = 0.3098	18.21 ± 0.091
293.15 K, x1 = 0.4062	14.48 ± 0.074
293.15 K, x1 = 0.4503	13.03 ± 0.067
293.15 K, x1 = 0.5003	11.5 ± 0.06
293.15 K, x1 = 0.5413	10.37 ± 0.055
293.15 K, x1 = 0.5988	8.935 ± 0.048
293.15 K, x1 = 0.6952	6.844 ± 0.038
293.15 K, x1 = 0.8031	4.921 ± 0.03
293.15 K, x1 = 0.9002	3.465 ± 0.021
293.15 K, x1 = 0.9508	2.759 ± 0.017
298.15 K, x1 = 0.0511	26.45 ± 0.13
298.15 K, x1 = 0.1023	23.41 ± 0.12
298.15 K, x1 = 0.2003	18.57 ± 0.093
298.15 K, x1 = 0.2998	14.7 ± 0.075
298.15 K, x1 = 0.3988	11.61 ± 0.061
298.15 K, x1 = 0.4514	10.25 ± 0.054
298.15 K, x1 = 0.4998	9.068 ± 0.049
298.15 K, x1 = 0.5476	8.079 ± 0.044
298.15 K, x1 = 0.5996	7.096 ± 0.04
298.15 K, x1 = 0.6983	5.447 ± 0.032
298.15 K, x1 = 0.7991	4.05 ± 0.025
298.15 K, x1 = 0.882	3.061 ± 0.019
298.15 K, x1 = 0.95	2.337 ± 0.015
303.15 K, x1 = 0.0643	18.69 ± 0.094
303.15 K, x1 = 0.0932	17.45 ± 0.088
303.15 K, x1 = 0.2072	13.23 ± 0.068
303.15 K, x1 = 0.3008	10.56 ± 0.056
303.15 K, x1 = 0.4001	8.317 ± 0.046
303.15 K, x1 = 0.4496	7.372 ± 0.041
303.15 K, x1 = 0.4939	6.612 ± 0.038
303.15 K, x1 = 0.5508	5.751 ± 0.034
303.15 K, x1 = 0.5913	5.201 ± 0.031
303.15 K, x1 = 0.701	3.93 ± 0.024
303.15 K, x1 = 0.7959	3.051 ± 0.019
303.15 K, x1 = 0.899	2.267 ± 0.014
303.15 K, x1 = 0.9218	2.117 ± 0.013

CNC(C)=O + CCCCn1cc[n+](C)c1.F[B-](F)(F)F
101 kPa
Settings	viscosity [mPa·s]
293.15 K, x2 = 0.8495	82.55 ± 5.1
308.15 K, x2 = 0.714	24.65 ± 1.5

CC(C)CCO + OCCCCO
viscosity [mPa·s], 100 kPa
Settings	x1 = 0.0812	x1 = 0.1634	x1 = 0.2525	x1 = 0.3428	x1 = 0.4555	x1 = 0.5459	x1 = 0.6484	x1 = 0.7582	x1 = 0.8761
298.15 K	67.45 ± 0.49	62.1 ± 0.39	56.19 ± 0.31	50.09 ± 0.26	42.34 ± 0.28	36.04 ± 0.23	28.79 ± 0.19	20.97 ± 0.14	12.53 ± 0.1
303.15 K	53.11 ± 0.28	49.29 ± 0.32	45.07 ± 0.29	40.5 ± 0.26	34.55 ± 0.23	29.64 ± 0.2	23.86 ± 0.16	17.53 ± 0.13	10.61 ± 0.09
308.15 K	42.18 ± 0.28	39.46 ± 0.26	36.34 ± 0.24	32.86 ± 0.21	28.33 ± 0.19	24.49 ± 0.17	19.94 ± 0.14	14.75 ± 0.11	9.039 ± 0.083

CCOCCO + CCC(C)=O
298.15 K, 101 kPa
Settings	viscosity [mPa·s]
x2 = 0.1219	1.479 ± 0.01
x2 = 0.2381	1.178 ± 0.008
x2 = 0.3488	0.948 ± 0.007
x2 = 0.4545	0.767 ± 0.005
x2 = 0.5555	0.609 ± 0.004
x2 = 0.6521	0.524 ± 0.004
x2 = 0.7446	0.457 ± 0.003
x2 = 0.8333	0.419 ± 0.003
x2 = 0.9183	0.387 ± 0.003

CC(C)CCO + OCC(O)CO
viscosity [mPa·s], 100 kPa
Settings	x1 = 0.0692	x1 = 0.1425	x1 = 0.2195	x1 = 0.3027	x1 = 0.3954	x1 = 0.498	x1 = 0.6042	x1 = 0.7235	x1 = 0.8535
298.15 K	879.2 ± 43	810.7 ± 38	738.6 ± 34	660.6 ± 29	573.7 ± 24	477.4 ± 18	377.4 ± 13	265 ± 7.6	142.2 ± 2.6
303.15 K	583.7 ± 24	540.5 ± 22	494.2 ± 19	443.9 ± 16	387.3 ± 13	323.9 ± 10	257.5 ± 7.2	181.7 ± 4.1	97.82 ± 1.2
308.15 K	389.9 ± 14	363 ± 12	333.5 ± 11	301.1 ± 9.2	263.5 ± 7.5	220.7 ± 5.6	175.6 ± 3.8	123.8 ± 2	67.02 ± 0.49
